Laboratory results as given in US20040063662A1, “Selenophene anti-tumor agents” (priority 1996, published 2004).

Tests used:
K-562 = assay: NCI human tumor cell panel: K-562 (Leukemia); format: cell-based
MOLT-4 = assay: NCI human tumor cell panel: MOLT-4 (Leukemia); format: cell-based
SR = assay: NCI human tumor cell panel: SR (Leukemia); format: cell-based
A549/ATCC = assay: NCI human tumor cell panel: A549/ATCC (Non-Small Cell Lung Cancer); format: cell-based; conditions: read-out: Log10 TGI (converted)
EKVX = assay: NCI human tumor cell panel: EKVX (Non-Small Cell Lung Cancer); format: cell-based
HOP-62 = assay: NCI human tumor cell panel: HOP-62 (Non-Small Cell Lung Cancer); format: cell-based
NCI-H23 = assay: NCI human tumor cell panel: NCI-H23 (Non-Small Cell Lung Cancer); format: cell-based; conditions: NCI-H23, read-out: Log10 GI50 (converted)
NCI-H460 = assay: NCI human tumor cell panel: NCI-H460 (Non-Small Cell Lung Cancer); format: cell-based
HCT-116 = assay: NCI human tumor cell panel: HCT-116 (Colon Cancer); format: cell-based
HCT-15 = assay: NCI human tumor cell panel: HCT-15 (Colon Cancer); format: cell-based
HT29 = assay: NCI human tumor cell panel: HT29 (Colon Cancer); format: cell-based
KM12 = assay: NCI human tumor cell panel: KM12 (Colon Cancer); format: cell-based; conditions: KM12, read-out: Log10 TGI (converted)
SW-620 = assay: NCI human tumor cell panel: SW-620 (Colon Cancer); format: cell-based
SF-295 = assay: NCI human tumor cell panel: SF-295 (CNS Cancer); format: cell-based; conditions: SF-295, read-out: Log10 GI50 (converted)
SNB-75 = assay: NCI human tumor cell panel: SNB-75 (CNS Cancer); format: cell-based
LOX IMVI = assay: NCI human tumor cell panel: LOX IMVI (Melanoma); format: cell-based
MALME-3M = assay: NCI human tumor cell panel: MALME-3M (Melanoma); format: cell-based; conditions: Malme-3M
UACC-257 = assay: NCI human tumor cell panel: UACC-257 (Melanoma); format: cell-based
UACC-62 = assay: NCI human tumor cell panel: UACC-62 (Melanoma); format: cell-based
IGROV1 = assay: NCI human tumor cell panel: IGROV1 (Ovarian Cancer); format: cell-based
OVCAR-4 = assay: NCI human tumor cell panel: OVCAR-4 (Ovarian Cancer); format: cell-based; conditions: OVCAR-4, read-out: Log10 GI50 (converted)
OVCAR-5 = assay: NCI human tumor cell panel: OVCAR-5 (Ovarian Cancer); format: cell-based
OVCAR-8 = assay: NCI human tumor cell panel: OVCAR-8 (Ovarian Cancer); format: cell-based
786-0 = assay: NCI human tumor cell panel: 786-0 (Renal Cancer); format: cell-based; conditions: 786-0, read-out: Log10 TGI (converted)
A498 = assay: NCI human tumor cell panel: A498 (Renal Cancer); format: cell-based
ACHN = assay: NCI human tumor cell panel: ACHN (Renal Cancer); format: cell-based
SN12C = assay: NCI human tumor cell panel: SN12C (Renal Cancer); format: cell-based
TK-10 = assay: NCI human tumor cell panel: TK-10 (Renal Cancer); format: cell-based
PC-3 = assay: NCI human tumor cell panel: PC-3 (Prostate Cancer); format: cell-based
MCF7/ADR-RES = assay: NCI human tumor cell panel: MCF7/ADR-RES (Breast Cancer); format: cell-based
HS 578T = assay: NCI human tumor cell panel: HS 578T (Breast Cancer); format: cell-based
BT-549 = assay: NCI human tumor cell panel: BT-549 (Breast Cancer); format: cell-based
HOP-92 = assay: NCI human tumor cell panel: HOP-92 (Non-Small Cell Lung Cancer)
[1] = read-out: Log10 GI50 (converted)
[2] = read-out: Log10 TGI (converted)

O=Cc1ccc(-c2ccc(-c3ccc(C=O)[se]3)s2)s1 [compound 688829]
GI50 (K-562; K562, K-562, read-out: Log10 GI50 (converted)): 0.251 µM
IC (TGI) (K-562; K562, K-562, read-out: Log10 TGI (converted)): > 100 µM
GI50 (MOLT-4; MOLT-4, read-out: Log10 GI50 (converted)): 57.5 µM
IC (TGI) (MOLT-4; MOLT-4, read-out: Log10 TGI (converted)): > 100 µM
GI50 (SR; [1]): 24.5 µM
IC (TGI) (SR; [2]): 72.4 µM
IC (TGI) (A549/ATCC): > 100 µM
GI50 (EKVX; [1]): > 100 µM
IC (TGI) (EKVX; [2]): > 100 µM
GI50 (HOP-62; HOP-62, read-out: Log10 GI50 (converted)): 0.251 µM
IC (TGI) (HOP-62; HOP-62, read-out: Log10 TGI (converted)): 15.8 µM
GI50 (NCI-H23): > 100 µM
GI50 (NCI-H460; NCI-H460, read-out: Log10 GI50 (converted)): 0.141 µM
IC (TGI) (NCI-H460; NCI-H460, read-out: Log10 TGI (converted)): > 100 µM
GI50 (HCT-116; HCT-116, read-out: Log10 GI50 (converted)): 0.295 µM
IC (TGI) (HCT-116; HCT-116, read-out: Log10 TGI (converted)): > 100 µM
GI50 (HCT-15; HCT-15, read-out: Log10 GI50 (converted)): 22.9 µM
IC (TGI) (HCT-15; HCT-15, read-out: Log10 TGI (converted)): > 100 µM
GI50 (HT29; HT-29, HT29, read-out: Log10 GI50 (converted)): 23.4 µM
IC (TGI) (HT29; HT-29, HT29, read-out: Log10 TGI (converted)): > 100 µM
IC (TGI) (KM12): > 100 µM
GI50 (SW-620; SW-620, read-out: Log10 GI50 (converted)): 0.832 µM
IC (TGI) (SW-620; SW-620, read-out: Log10 TGI (converted)): > 100 µM
GI50 (SF-295): > 100 µM
GI50 (SNB-75; SNB-75, read-out: Log10 GI50 (converted)): 75.9 µM
IC (TGI) (SNB-75; SNB-75, read-out: Log10 TGI (converted)): > 100 µM
GI50 (LOX IMVI; [1]): 16.6 µM
IC (TGI) (LOX IMVI; [2]): > 100 µM
GI50 (MALME-3M; [1]): 28.8 µM
IC (TGI) (MALME-3M; [2]): > 100 µM
GI50 (UACC-257; UACC-257, read-out: Log10 GI50 (converted)): 0.195 µM
IC (TGI) (UACC-257; UACC-257, read-out: Log10 TGI (converted)): 0.513 µM
GI50 (UACC-62; UACC-62, read-out: Log10 GI50 (converted)): 0.141 µM
IC (TGI) (UACC-62; UACC-62, read-out: Log10 TGI (converted)): > 100 µM
GI50 (IGROV1; IGROV-1, IGROV1, read-out: Log10 GI50 (converted)): 0.178 µM
IC (TGI) (IGROV1; IGROV-1, IGROV1, read-out: Log10 TGI (converted)): 2.45 µM
GI50 (OVCAR-4): 0.186 µM
GI50 (OVCAR-5; OVCAR-5, read-out: Log10 GI50 (converted)): 0.123 µM
IC (TGI) (OVCAR-5; OVCAR-5, read-out: Log10 TGI (converted)): 0.501 µM
GI50 (OVCAR-8; OVCAR-8, read-out: Log10 GI50 (converted)): 15.1 µM
IC (TGI) (OVCAR-8; OVCAR-8, read-out: Log10 TGI (converted)): 93.3 µM
IC (TGI) (786-0): 26.9 µM
GI50 (A498; A498, read-out: Log10 GI50 (converted)): 0.0214 µM
IC (TGI) (A498; A498, read-out: Log10 TGI (converted)): 0.0794 µM
GI50 (ACHN; [1]): > 100 µM
IC (TGI) (ACHN; [2]): > 100 µM
GI50 (SN12C; [1]): 28.2 µM
IC (TGI) (SN12C; [2]): 85.1 µM
GI50 (TK-10; TK-10, read-out: Log10 GI50 (converted)): 0.0282 µM
IC (TGI) (TK-10; TK-10, read-out: Log10 TGI (converted)): 0.209 µM
GI50 (PC-3; PC-3, read-out: Log10 GI50 (converted)): 28.2 µM
IC (TGI) (PC-3; PC-3, read-out: Log10 TGI (converted)): > 100 µM
GI50 (MCF7/ADR-RES; [1]): 30.2 µM
IC (TGI) (MCF7/ADR-RES; [2]): > 100 µM
GI50 (HS 578T; [1]): 2.88 µM
IC (TGI) (HS 578T; [2]): > 100 µM
GI50 (BT-549; BT-549, read-out: Log10 GI50 (converted)): 56.2 µM
IC (TGI) (BT-549; BT-549, read-out: Log10 TGI (converted)): > 100 µM
GI50 (HOP-92; HOP-92, read-out: Log10 GI50 (converted)): 97.7 µM
IC (TGI) (HOP-92; HOP-92, read-out: Log10 TGI): > 100 µM
